The source of these data is paper PMC9552147 (Nature Communications, 2022).

Data set [1] relates to M. tuberculosis H37Rv. In kind it is cell-based, Mycobacterium tuberculosis. More on the design: MIC, No Lysine / MIC, No Lysine, Ave: unit not given beside the values.
The subject of data set [2] is M. tuberculosis H37Rv. More on the design: species or system C57BL/6 mice. As to conditions: in vivo, 30 mg/kg.
The test system of the next data set is M. tuberculosis. More on the design: species or system C57BL/6 mice. As to conditions: in vivo, 100 mg/kg.
The test system of data set [3] is HepG2 cells. The data set can be described thus: cells. Type of data set: cell-based. The following applies: Homo sapiens.
Procedure: (§1) Cells were trypsinized in 0.05% trypsin-EDTA (Gibco) and re-suspended in 10 mL growth medium. Cells were filtered through a 40 µm filter and seeded in collagen-coated 96-well plates (Life technologies #A11428-03) at 3500 cells/well in a volume of 170 µL/well with plates agitated upon cell addition to ensure even distribution. […] The plates were incubated an additional 72 h after which the medium was gently aspirated and replaced with 4% paraformaldehyde (100 µL/well) prepared in Dulbecco’s PBS. After 20 min fixation, the medium was removed, and wells washed three times with 200 µL/well PBS. Wells were treated for 5 min with 0.5% acetic acid (100 μL/well), wells were washed with 200 μL/well PBS and subsequently treated with permeabilization buffer (0.1 % Triton X-100) (100 μL/well) for 30 min. Buffer was removed and replaced with 2× blocking buffer from the ab110217 MitoBiogenesis™ In-Cell ELISA Kit (Abcam). After 2 h incubation, primary antibody was added (100 μl/well) in 1× blocking buffer per manufacturer’s recommendation except for the background control wells which received 100 μl/well 1× blocking buffer only. […] Alkaline phosphatase/horse radish peroxidase-labeled secondary antibody solution prepared according to the manufacturer’s instructions in 1× blocking buffer was added at 100 μl/well to all wells. After 1 h incubation, wells were washed 4 times with wash buffer (200 μl/well) followed by addition of 100 μl/well freshly prepared per manufacturer’s recommendation alkaline peroxidase development solution. […] The reagent was removed, and 100 μl/well horse radish peroxidase development solution added. […] The development solution was completely removed, and plates blotted to dryness after which 1× Janus green stain (50 μl/well) was added. […] Data was interpreted per manufacturer’s instructions and plotted in GraphPad Prism to calculate IC20 and IC50 values for Cox-I/SDHA and cell viability.
Data set [4] has as its system COX1 production (mitochondrial ribosomes) in HepG2 cells. As to conditions: for COX1 production: human; for IC50: read-out: Cox IC50.
Procedure: as §1
The test system is the same in data set [5]. As to the kind of experiment: cells. The following applies: Homo sapiens.
Procedure: as §1
Data set [6] concerns SDHA production (cytoplasmic ribosomes) in HepG2 cells. The data set can be described thus: cells. The following applies: Homo sapiens.
Procedure: as §1
Data set [7] concerns M. tuberculosis H37Rv. The data set can be described thus: microbe, parasite or virus in culture. In kind it is cell-based, Mycobacterium tuberculosis. As to conditions: for MIC: Mycobacterium tuberculosis, H37RV.
The subject of data set [8] is M. tuberculosis H37Rv:luc within THP1 monocytes. As to the kind of experiment: microbe, parasite or virus in culture. In kind it is cell-based. As to conditions: Mycobacterium tuberculosis.
Data set [9] relates to HepG2 cells.
Data set [10] has as its system SDHA production (cytoplasmic ribosomes) in HepG2 cells.
Procedure: as §1
In data set [11] the test system is HepG2 cells. As to the kind of experiment: cells. The following applies: Homo sapiens.
A further data set is described as follows: in vitro. As to conditions: human, HepG2 IC50 (cytotoxicity).
Data set [12] relates to M. tuberculosis H37Rv. More on the design: species or system BALB/c mice. As to conditions: in vivo.
For data set [13], the system named is M. tuberculosis H37Rv.
Data set [14] deals with lysine biosynthetic pathway metabolites in M. tuberculosis. In kind it is cell-based, Mycobacterium tuberculosis.

Converted amounts (≈) assume the structure as drawn. “And” between values parts separate entries of the source, which are not always exact repeats. Equal entries are not always repeated. Where two headings read alike, the source gives them in different places.

With `COc1c(N2C[C@@H]3CCCN[C@@H]3C2)c(F)cc2c(=O)c(C(=O)O)cn(C3CC3)c12` [Moxifloxacin], in the data set with M. tuberculosis H37Rv [1], the “MIC, +1mM Lysine” value is 2.04 and 3.47; the “MIC, +1mM Lysine, Ave” value is on record as 2.75; the “MIC, No Lysine” value is 1.02 and 1.45; the “MIC, No Lysine, Ave” value is 1.23. Moreover, in the data set with M. tuberculosis H37Rv [2], the “logCFUs per mouse (lungs)” value was 3.2 logCFUs per mouse and 3.3 logCFUs per mouse (2×) and 2.4 logCFUs per mouse and 2.9 logCFUs per mouse and 3.5 logCFUs per mouse and 3.8 logCFUs per mouse (2×) and 2.6 logCFUs per mouse; the “logCFUs per mouse (lungs), Mean” value is 3 logCFUs per mouse and 3.4 logCFUs per mouse. For the same compound, in the data set on M. tuberculosis, the “logCFUs per mouse (lungs)” value was 2.5 logCFUs per mouse (2×) and 2.3 logCFUs per mouse and 1.9 logCFUs per mouse and 2.2 logCFUs per mouse; the “logCFUs per mouse (lungs), Mean” value is 2.3 logCFUs per mouse.
Usually IC50 stands for the midpoint of a concentration-inhibition curve. For the compound `O=C(N[C@H](CO)[C@H](O)c1ccc([N+](=O)[O-])cc1)C(Cl)Cl` [chloramphenicol], the concentration for half-maximal inhibition (IC50) in the data set with HepG2 cells [3] (HepG2, read-out: JG IC50) was > 100 µM; in data set [4], 4.44 µM and 3.97 µM and 4.95 µM; in [5] (HepG2, read-out: Cox IC50) it was 5.11 µM; in data set [5] (HepG2, read-out: Cox IC50, Ave), 4.6 µM; in [6] (HepG2, read-out: SDH-A IC50), > 100 µM. Also, in [4], the COX1 production entry is “selective inhibition of COX1 production”.
Take `NNC(=O)c1ccncc1` [isoniazid]: in the data set on M. tuberculosis H37Rv [1], the “MIC, +1mM Lysine” value is 2.82 and 2.63; the “MIC, +1mM Lysine, Ave” value is 2.72; the “MIC, No Lysine” value was 3.02 and 3.39; the “MIC, No Lysine, Ave” value stood at 3.20.
Take `Nc1cc2c(c(F)n1)C(=O)N(C1CCCCC1)C2` [Compound 2]: the “WT MIC” value with M. tuberculosis H37Rv [7] came to 0.74 µM. For the same compound, the MIC in the data set on M. tuberculosis H37Rv [7] (read-out: MIC (µM), single replicate) was 0.6 µM (≈ 0.15 µg/mL); in the data set with M. tuberculosis H37Rv [7] (read-out: MIC, Geo Mean), 0.6 µM (≈ 0.15 µg/mL); in the data set with M. tuberculosis H37Rv [7] (read-out: MIC, Mean) it was 0.6 µM (≈ 0.15 µg/mL); in the data set with M. tuberculosis H37Rv [7] (read-out: MIC, Median), 0.6 µM (≈ 0.15 µg/mL); in the data set with M. tuberculosis H37Rv [7] (read-out: WT MIC) it was 0.89 µM (≈ 0.222 µg/mL); with M. tuberculosis H37Rv [7] (read-out: WT MIC, Ave) it was 0.82 µM (≈ 0.204 µg/mL). This compound also registered an MIC in data set [8] of 0.71 µM (≈ 0.177 µg/mL). In addition, the IC50 is 3.3 µM in the data set on HepG2 cells [3] (HepG2, read-out: JG IC50, Ave); 7.94 µM with HepG2 cells [9]; 3.54 µM and 4.59 µM and 3.47 µM in data set [4]; 2.89 µM and 3.53 µM and 3.87 µM in data set [10] (read-out: SDH-A IC50); 10.7 µM in the data set with HepG2 cells [11] (HepG2, read-out: IC50 (µM), Geo Mean); 11.8 µM with HepG2 cells [11] (HepG2, read-out: IC50 (µM), Mean). The IC50 in [5] (HepG2, read-out: Cox IC50) was determined as 2.67 µM; in data set [5] (HepG2, read-out: Cox IC50, Ave), 3.6 µM; in data set [6] (HepG2, read-out: SDH-A IC50), 3.04 µM; in [6] (HepG2, read-out: SDH-A IC50, Ave), 3.3 µM; in the data set “in vitro”, 11 µM. Further, the COX1 production entry in data set [4] was “blocked expression of both COX1 and SDHA”. Further, the SDHA production entry in data set [10] (human) was “blocked expression of both COX1 and SDHA”.
Take `O=[N+]([O-])c1cn2c(n1)OC[C@@H](OCc1ccc(OC(F)(F)F)cc1)C2` [Pa, pretomanid]: in the data set on M. tuberculosis H37Rv [12], the “logCFUs per mouse (lungs)” value is 4.68 logCFUs per mouse and 4.53 logCFUs per mouse and 4.19 logCFUs per mouse and 4.48 logCFUs per mouse and 4.10 logCFUs per mouse; the “logCFUs per mouse (lungs), Mean” value is on record as 4.4 logCFUs per mouse. Moreover, the “change in lung CFU over the treatment period” value with M. tuberculosis H37Rv [12] (mouse) was “significant decrease in CFU”.
Consider `CC(=O)NC[C@H]1CN(c2ccc(N3CCOCC3)c(F)c2)C(=O)O1` [Linezolid, linezolid], for which, in the data set on HepG2 cells [3] (HepG2, read-out: JG IC50), the half-inhibitory concentration (IC50) is > 100 µM. For the same compound, the COX1 production result in data set [4] is “selective inhibition of COX1 production”. For the same compound, in the data set with M. tuberculosis H37Rv [13], the “CFU/ml, Day 0” value is given as 103000 CFU/ml; the “CFU/ml, Day 2” value was 400000 CFU/ml and 600000 CFU/ml; the “CFU/ml, Day 4” value was 140000 CFU/ml and 70000 CFU/ml; the “CFU/ml, Day 7” value was 70000 CFU/ml and 53000 CFU/ml. For the same compound, the “CFU/ml, Day 14” value in the data set on M. tuberculosis H37Rv [13] is 8600 CFU/ml and 7100 CFU/ml. Further, the IC50 in data set [6] (HepG2, read-out: SDH-A IC50) is > 100 µM.
With `Nc1ncc2c(n1)CC(C1CCC1)C2=O` (centres unmarked) [Compound 9], in data set [14], the “Acetyl-amino-oxopimelate, Raw data” value is 6696.89 and 6125.64 and 5614.65; the “Acetyl-aminoadipate, Raw data” value was 373220.66 and 356398.25 and 363487.19; the “Acetyl-diaminopimelate, Raw data” value was 268291.72 and 294087.29 and 265596.05; the “Allysine, Raw data” value is 6339.98 and 6256.07 and 3388.68. Moreover, in [14], the “Amino-oxoheptanedioate, Raw data” value was 67628.76 and 66386.61 and 73890.51; the “Aminoadipate, Raw data” value is 230713.39 and 278620.19 and 273252.31; the “Glutamic acid, Raw data” value was 95052793.71 and 89933952.73 and 93441271.33; the “Lysine or Methylornithine, Raw data” value was 376867.18 and 321105.18 and 351101.87. Besides, in data set [14], the “Saccharopine, Raw data” value is 4344892.84 and 4372904.79 and 3935929.36; the “Succinyl-diaminopimelate, Raw data” value is 61950.05 and 84823.10 and 63130.16; the “diaminopimelate, Raw data” value is 182757.00 and 205469.42 and 201059.38.
For `CO[C@H]1/C=C/O[C@@]2(C)Oc3c(C)c(O)c4c(O)c(c(/C=N/N5CCN(C)CC5)c(O)c4c3C2=O)NC(=O)/C(C)=C\C=C\[C@H](C)[C@H](O)[C@@H](C)[C@@H](O)[C@@H](C)[C@H](OC(C)=O)[C@@H]1C` [Rifampicin, rifampicin], in the data set on M. tuberculosis H37Rv [13], the “CFU/ml, Day 0” value came to 103000 CFU/ml; the “CFU/ml, Day 2” value is 270000 CFU/ml and 190000 CFU/ml; the “CFU/ml, Day 7” value was 5000 CFU/ml and 5100 CFU/ml; the “CFU/ml, Day 14” value is 440 CFU/ml and 430 CFU/ml.
